Experimental data as given in US20160296499A1, “Spiroindoline Antiparasitic Derivatives” (ZOETIS SERVICES LLC, priority 2013, published 2016).
Where two headings read alike, the source gives them in different places.

Legend:
[1] = tested on: Dirofilaria immitis microfilariae; assay: Dirofilaria immitis, Microfilariae (DiMF) In Vitro Assay; conditions: Dirofilaria immitis
[2] = molecular target: T1, bovine vesicular acetylcholine transporter (VAChT) (Bos taurus, UniProt E1BK36); assay: Radioligand Binding Assay; conditions: Bovine binding Ki, CHO-K1 membranes with recombinant bovine VAChT, [3H]Compound X6 0.3 nM
T1 sequence (E1BK36 1-524): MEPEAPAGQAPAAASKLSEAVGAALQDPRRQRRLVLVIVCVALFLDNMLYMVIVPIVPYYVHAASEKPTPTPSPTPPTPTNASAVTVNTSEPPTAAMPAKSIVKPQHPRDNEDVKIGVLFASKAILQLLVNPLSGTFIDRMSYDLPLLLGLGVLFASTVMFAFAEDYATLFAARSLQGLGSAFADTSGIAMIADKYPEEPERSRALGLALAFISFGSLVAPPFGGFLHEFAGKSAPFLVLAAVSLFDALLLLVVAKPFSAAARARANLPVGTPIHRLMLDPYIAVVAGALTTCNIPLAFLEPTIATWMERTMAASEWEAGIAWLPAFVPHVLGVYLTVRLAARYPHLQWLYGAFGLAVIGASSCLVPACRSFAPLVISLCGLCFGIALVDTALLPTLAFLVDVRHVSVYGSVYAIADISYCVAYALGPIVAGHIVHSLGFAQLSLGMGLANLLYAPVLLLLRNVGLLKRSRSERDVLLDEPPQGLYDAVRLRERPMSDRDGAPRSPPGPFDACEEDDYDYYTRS
Method: To measure binding affinity, CHO-K1 cells recombinantly expressing the bovine VAChT was generated as a stable cell line and subsequently used to produce membrane preparations.
Radioligand binding assays were conducted in disposable polypropylene 96-well plates. VAChT competition assays were initiated by the addition of bovine recombinant membrane homogenate (50 μg/well) in assay buffer (50 mM Tris-HCl, 120 mM NaCl, 5 mM KCl, 1 mM MgCl, and 2 mM CaCl, pH 7.4) containing [^3H]Compound X6 (0.3 nM) with or without competing ligand. The assay was allowed to equilibrate for 120 minutes at room temperature, before being filtered onto GF/C unifilter plates pre-coated in 0.3% polyethylenimine (Perkin Elmer Life and Analytical Sciences, Boston, Mass.) with a Filtermate 96 harvester (PerkinElmer Life and Analytical Sciences). Filters were washed in ice-cold 50 mM Tris-HCl, pH 7.4 buffer and then counted for radioactivity in a TopCount microplate scintillation counter after addition of 50 μL Microscint 20 (PerkinElmer). Non-specific binding was measured in the presence of 10 μM Compound X6. Apparent dissociation constants (Ki values) from the competition experiments were calculated using an iterative nonlinear regression curve-fitting program (GraphPAD Prism 6.0 Software, San Diego, Calif.) and are reported in Table 2.

[3] = tested on: Haemonchus contortus L3; assay: Haemonchus contortus, Larvae Stage 3 (HcL3) In Vitro Assay; conditions: Haemonchus contortus
[4] = 72 h, read-out: Di MF, MEC, decrease in microfilariae motility by visual assessment, curve starting at 100 μM
[5] = 96 h, read-out: HcL3 MEC, Minimal Effective Concentration whereby worm motility is inhibited by approximately 70%, 37° C., tested 0.001-100 μM
[6] = 96 hours, 37° C., read-out: HcL3 MEC

| Structure (SMILES) | minimal effective concentration [1, 4] [µM] | Ki [2] [nM] | minimal effective concentration [3, 5] [µM] | minimal effective concentration ([1]; 72 hours, read-out: Di MF) [µM] | minimal effective concentration [3, 6] [µM] |
| --- | --- | --- | --- | --- | --- |
| Cc1nc2c3c(ccc2s1)N(C(=O)NCc1ccnc(Cl)c1)CC31CCN(C/C=C/c2ccc(C(F)(F)F)cn2)CC1 [Example 45, (E)-N-((2-chloropyridin-4-yl)methyl)-2′-methyl-1-(3-(5-(trifluoromethyl)pyridin-2-yl)allyl)spiro[piperidine-4,8′-thiazolo[4,5-e]indole]-6′(7′H)-carboxamide] | 33 | 3220 | > 100 | – | – |
| COc1ccc(/C=C/CN2CCC3(CC2)CN(C(=O)NCc2ccnc(Cl)c2)c2ccc4sc(C)nc4c23)cc1 [Example 46, (E)-N-((2-chloropyridin-4-yl)methyl)-1-(3-(4-methoxyphenyl)allyl)-2′-methylspiro[piperidine-4,8′-thiazolo[4,5-e]indole]-6′(7′H)-carboxamide] | 10 | 883 | > 100 | – | – |
| O=C(NCc1ccnc(Br)c1)N1CC2(CCN(C/C=C/c3ccc(Cl)c(Cl)c3)CC2)c2c1ccc1scnc21 [Example 47, (E)-N-((2-bromopyridin-4-yl)methyl)-1-(3-(3,4-dichlorophenyl)allyl)spiro[piperidine-4,8′-thiazolo[4,5-e]indole]-6′(7′H)-carboxamide] | 10 | 919 | 100 | – | – |
| Cn1ncc2c3c(ccc21)N(C(=O)NCc1ccnc(Cl)c1)CC31CCN(C/C=C/c2ccc(Cl)cc2)CC1 [Example 51, (E)-1-(3-(4-chlorophenyl)allyl)-N-((2-chloropyridin-4-yl)methyl)-3′-methyl-3′H-spiro[piperidine-4,8′-pyrrolo[3,2-e]indazole]-6′(7′H)-carboxamide] | – | 518 | – | 33.3 | > 100 |
| Cn1ncc2c3c(ccc21)N(C(=O)NCc1ccnc(Cl)c1)CC31CCN(C/C=C/c2ccc(F)cc2)CC1 [Example 52, (E)-N-((2-chloropyridin-4-yl)methyl)-1-(3-(4-fluorophenyl)allyl)-3′-methyl-3′H-spiro[piperidine-4,8′-pyrrolo[3,2-e]indazole]-6′(7′H)-carboxamide] | 10 | 778 | > 100 | – | – |
| Cn1ncc2c3c(ccc21)N(C(=O)NCc1ccnc(Cl)c1)CC31CCN(C/C=C/c2ccc(C(F)(F)F)cn2)CC1 [Example 53, (E)-N-((2-chloropyridin-4-yl)methyl)-3′-methyl-1-(3-(5-(trifluoromethyl)pyridin-2-yl)allyl)-3′H-spiro[piperidine-4,8′-pyrrolo[3,2-e]indazole]-6′(7′H)-carboxamide] | 33 | 1930 | > 100 | – | – |
| COc1ccc(/C=C/CN2CCC3(CC2)CN(C(=O)NCc2ccnc(Cl)c2)c2ccc4c(cnn4C)c23)cc1 [Example 54, (E)-N-((2-chloropyridin-4-yl)methyl)-1-(3-(4-methoxyphenyl)allyl)-3′-methyl-3′H-spiro[piperidine-4,8′-pyrrolo[3,2-e]indazole]-6′(7′H)-carboxamide] | 33 | 1400 | > 100 | – | – |
| O=C(NCc1ccnc(Cl)c1)N1CC2(CCN(C/C=C/c3ccc(Cl)c(Cl)c3)CC2)c2cc(OC(F)(F)F)ccc21 [Example 55, (E)-N-((2-chloropyridin-4-yl)methyl)-1′-(3-(3,4-dichlorophenyl)allyl)-5-(trifluoromethoxy)spiro[indoline-3,4′-piperidine]-1-carboxamide] | 5.7 | 876 | 3.3 | – | – |
| O=C(NCc1ccnc(Cl)c1)N1CC2(CCN(C/C=C/c3ccc(Cl)c(Cl)c3)CC2)c2c1cccc2C(F)(F)F [Example 56, (E)-N-((2-chloropyridin-4-yl)methyl)-1′-(3-(3,4-dichlorophenyl)allyl)-4-(trifluoromethyl)spiro[indoline-3,4′-piperidine]-1-carboxamide] | – | 432 | – | 9.1 | 4.5 |
